From patent US10526338B2, “Functionalized pentanoic acids for use influenza viral infections” (Janssen Sciences Ireland UC, priority 2016, dated 2020)
Where two headings read alike, the source gives them in different places.

Tested on: influenza virus A/Taiwan/1/86 (H1N1)
Test: organism not typed
Format: cell-based
Settings: 72 h, MDCK cells infected by influenza A/Taiwan/1/86 (H1N1), three days post-virus exposure, ATP levels
[1] = read-out: FLU-AVE-MDCK-ATP-TW_EC50
[2] = read-out: FLU-AVE-MDCK-ATP-TW_pEC50 (converted)

SMILES | EC50 [1] [nM] | EC50 [2] [nM]
CC1(C(CC(=O)O)Nc2nc(-c3c[nH]c4ncc(Cl)cc34)ncc2F)COC1 (stereo not drawn) | 982 | 1000
CC(C)(c1nccs1)C(CC(=O)O)Nc1nc(-c2c[nH]c3ncc(Cl)cc23)c(C#N)cc1F (stereo not drawn) | 0.267 | 0.251
Cn1ccc(C(C)(C)C(CC(=O)O)Nc2nc(-c3c[nH]c4ncc(Cl)cc34)c(C#N)cc2F)n1 (stereo not drawn) | 2.56 | 2.51
C=CCC(C)(C)C(CC(=O)O)Nc1nc(-c2c[nH]c3ncc(Cl)cc23)c(C#N)cc1F (stereo not drawn) | 1 | 1
CC(C)(c1ccccn1)[C@@H](CC(=O)O)Nc1nc(-c2c[nH]c3ncc(Cl)cc23)c(C#N)cc1F (single isomer, unassigned) | 5.4 | 5.01
CC(C)(c1cccs1)C(CC(=O)O)Nc1nc(-c2c[nH]c3ncc(Cl)cc23)c(C#N)cc1F (stereo not drawn) | 0.57 | 0.631
CC(C)(c1ccccn1)[C@H](CC(=O)O)Nc1nc(-c2c[nH]c3ncc(Cl)cc23)c(C#N)cc1F (single isomer, unassigned) | 0.075 | 0.00631
CC(C)(c1cccs1)C(CC(=O)O)Nc1nc(-c2c[nH]c3ncc(Cl)cc23)ncc1F (stereo not drawn) | 2.54 | 2.51
CC(C)(c1ccccn1)C(CC(=O)O)Nc1nc(-c2c[nH]c3ncncc23)ncc1F (stereo not drawn) | 1890 | 
CC(C)(c1ccccn1)C(CC(=O)O)Nc1nc(-c2c[nH]c3ncc(Cl)cc23)c(C#N)cc1F (stereo not drawn) | 0.47 | 
